According to the OPERA property sets (Mansouri et al. 2018):

Compound | logP
CCNC(=O)c1cccs1 | 1.18
CCNC(=O)c1ccsc1 | 1.18
CNC(=O)c1cccs1 | 0.84
COC(=O)c1cccs1 | 1.83
COc1cccs1 | 2.13
CCCNC(=O)c1cccs1 | 1.68
CNC(=O)c1ccsc1 | 0.81
Clc1ccsc1 | 2.55

Other lines, results leading:

logP | Compound
3.03 | CCCOC(=O)c1ccsc1
1.65 | CCCNC(=O)c1ccsc1
3.01 | CCCOC(=O)c1cccs1
2.32 | CCOC(=O)c1ccsc1
